Laboratory results as given in patent US7579005B2, “Process for recombinant expression and purification of antimicrobial peptides using periplasmic targeting signals as precipitable hydrophobic tags” (E. I. du Pont de Nemours and Company, priority 2005, dated 2009).
Residues, ends and D or L forms follow the SMILES beside them.

Legend:
[1] = system: E. coli expression host; assay: Growth of E. coli host cells expressing the fusion proteins (shake flask studies); assay type: cell-based; conditions: tryptophan induction
Protocol: Single colonies of E. coli containing pLH117 or pLH119 were grown in Rich Medium overnight at 30° C. at 250 rpm. A fresh culture was started the following day using 10% of the overnight growth diluted in Induction media and grown to an OD550 of 0.8. Induction media had no tryptophan (1×M9 salts, 0.2% casamino acids, 0.5% glucose, 1 mM MgCl2, and 100 ug/ml ampicillin). To facilitate induction, tryptophan was added for a final concentration of 100 μg/ml and flasks were incubated at 37° C. with shaking at 300 rpm. Samples were taken pre-induction and at 4, 8, and 12 hr post induction. Cell pellets were collected by centrifugation and analyzed for protein production.
Single colonies of E. coli containing pLH121 or pLH122 were grown in Rich Medium overnight at 30° C. at 250 rpm. A fresh culture was started the following day using 10% of the overnight growth in Induction medium and grown to an OD550 of 1.0 at 37°. To facilitate induction, tryptophan was added for a final concentration of 100 μg/ml. Samples were taken pre-induction and at 5 hr post induction. Cell pellets were collected by centrifugation and analyzed for protein production.

[2] = Effect of pH on solubility of OmpAPerSD and PG1; assay type: physicochemical; conditions: chemically synthesized samples, pH 1 to 12, 15 minutes at room temperature, supernatant by BCA total protein; FIG. 6
Protocol: Stock solutions of chemically synthesized samples of OmpAPerSD and PG1 were made in 0.1N NaOH. The pH of each sample was adjusted by the addition of 0.2 M sodium phosphate buffer or 0.1N HCl. Finally, water was added to make the final volume of each sample the same and the samples were mixed by vortexing. After 15 minutes at room temperature all samples were centrifuged at 13,000×g in a micro-centrifuge. The supernatants were carefully separated from the insoluble precipitates and analyzed for protein by the BCA total protein method. Protein determinations were made using standard solutions of synthetic OmpAPerSD and PG1, respectively, in 0.1N NaOH. […] The difference in pH solubility of OmpAPerSD and PG1 peptides, with maximal difference at low pH, lends to their ready separation by centrifugation or filtration.

Molecule	growth of cells expressing the fusion protein versus control cells containing only pLEX [1]	solubility over a range of pH [2]
OmpA targeting signal sequence-16KGLG1-6His: fusion protein of OmpA periplasmic targeting signal, 16KGLG1 and 6His tag, expressed from pLH119 (MKKTAIAIAVALAGFATVAQAKGLKKLLKGLKKLLKLHHHHHH; OmpA PerS-G1-6His fusion protein)	grew at similar rates as control cells	–
CC(C)C[C@H](NC(=O)[C@H](CCCCN)NC(=O)[C@H](CC(C)C)NC(=O)[C@H](CC(C)C)NC(=O)[C@H](CCCCN)NC(=O)[C@H](CCCCN)NC(=O)[C@H](CC(C)C)NC(=O)CNC(=O)[C@H](CCCCN)NC(=O)[C@H](CC(C)C)NC(=O)[C@H](CC(C)C)NC(=O)[C@H](CCCCN)NC(=O)[C@H](CCCCN)NC(=O)[C@H](CC(C)C)NC(=O)CNC(=O)[C@H](CCCCN)NC(=O)[C@@H]1CCCN1)C(=O)O [P16KGLG1] (H-PKGLKKLLKGLKKLLKL-OH; N-terminus and C-terminus assumed)	–	does not appear to be pH dependent
CC[C@H](C)[C@H](NC(=O)[C@H](C)NC(=O)[C@@H](NC(=O)[C@H](C)NC(=O)[C@@H](NC(=O)[C@H](CCCCN)NC(=O)[C@H](CCCCN)NC(=O)[C@@H](N)CCSC)[C@@H](C)O)[C@@H](C)CC)C(=O)N[C@@H](C)C(=O)N[C@H](C(=O)N[C@@H](C)C(=O)N[C@@H](CC(C)C)C(=O)N[C@@H](C)C(=O)NCC(=O)N[C@@H](Cc1ccccc1)C(=O)N[C@@H](C)C(=O)N[C@H](C(=O)N[C@H](C(=O)N[C@@H](C)C(=O)N[C@@H](CCC(N)=O)C(=O)N[C@@H](C)C(=O)N[C@@H](CC(=O)O)C(=O)O)C(C)C)[C@@H](C)O)C(C)C [OmpAPerSD] (H-MKKTAIAIAVALAGFATVAQAD-OH; N-terminus and C-terminus assumed)	–	increases with increasing pH
